Results on two molecules are retold here after patent US9987264B2, “Method and composition for treating a serotonin receptor-mediated condition” (Vanda Pharmaceuticals Inc., priority 2007, dated 2018).

For one data set, the target named is human 5HT2A receptor (Homo sapiens, UniProt P28223). Nature of the data set: radioligand binding study, human 5HT2A receptor. The source says: In a radioligand binding study, 4-[3-[4-(6-fluoro-1,2,-benzisoxazol-3-yl)-1-piperidinyl]propoxy]-3-methoxy-benzoic acid had the following activity against the human 5HT2A receptor: […]
Sequence of human 5HT2A receptor (P28223 whole entry): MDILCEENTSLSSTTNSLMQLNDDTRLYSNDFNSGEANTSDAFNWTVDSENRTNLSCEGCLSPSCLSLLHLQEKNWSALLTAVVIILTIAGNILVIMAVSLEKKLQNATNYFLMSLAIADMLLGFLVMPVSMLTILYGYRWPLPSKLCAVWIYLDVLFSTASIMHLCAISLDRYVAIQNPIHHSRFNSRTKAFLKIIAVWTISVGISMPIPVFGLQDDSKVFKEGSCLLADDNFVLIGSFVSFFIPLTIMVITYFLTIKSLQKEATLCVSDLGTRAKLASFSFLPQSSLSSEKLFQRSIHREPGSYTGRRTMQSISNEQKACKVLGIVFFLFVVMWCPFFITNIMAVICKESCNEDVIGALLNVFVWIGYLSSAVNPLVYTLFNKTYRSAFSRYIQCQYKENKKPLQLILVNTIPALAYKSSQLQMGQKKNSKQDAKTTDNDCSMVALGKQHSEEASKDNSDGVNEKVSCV
The subject of the next data set is platelet rich plasma. The data set can be described thus: platelet aggregation assay (ADP-induced, serotonin-potentiated). Type of data set: cell-based, albino rabbits. To be noted: Oryctolagus cuniculus. The protocol:
In this assay, platelet rich plasma was obtained from albino rabbits. Platelet aggregation was induced in the presence of 3 μM adenosine diphosphate (ADP) and was potentiated by the addition of 10 μM serotonin. 4-[3-[4-(6-fluoro-1,2,-benzisoxazol-3-yl)-1-piperidinyl]propoxyl]-3-methoxy-benzoic acid inhibited the platelet aggregation in the presence of serotonin within 5 minutes, by 30, 50, 60, and 79% at the concentrations of 6 μM, 60 μM, 0.6 mM, and 1 mM, respectively.

A short description of data set [1]: DMPK studies, brain radioactivity after [14C]-labelled compound. The format is in vivo. To be noted: rats treated with [14C]-labelled compound. From the text:
4-[3-[4-(6-fluoro-1,2,-benzisoxazol-3 -yl)-1-piperidinyl]propoxyl]-3-methoxy-benzoic acid appears not to cross the blood-brain barrier. Specifically, in DMPK studies using rats treated with [14C] […] Therefore, 4-[3-[4-(6-fluoro-1,2,-benzisoxazol-3-yl)-1-piperidinyl]propoxyl]-3-methoxy-benzoic acid is particularly useful in conditions that are not mediated, to a substantial degree, by receptors in the brain.

Usually IC50 stands for the concentration at which inhibition is half-maximal. Low readings indicate greater potency, high ones weaker potency. By Ki is commonly meant the dissociation constant of the complex between target and ligand, obtained from inhibition or displacement. Low readings indicate higher affinity, high ones lower affinity.

Take `COc1cc(C(=O)O)ccc1OCCCN1CCC(c2noc3cc(F)ccc23)CC1` [4-[3-[4-(6-fluoro-1,2,-benzisoxazol-3-yl)-1-piperidinyl]propoxy]-3-methoxy-benzoic acid]: on human 5HT2A receptor, the IC50 stood at 13.7 nM; the affinity, expressed as Ki, was 3.91 nM; the inhibition at 0.03 µM stood at 66%; the nH was 1.05 +/− .091. In addition, in the data set on platelet rich plasma (5 min, 6 μM, 3 μM ADP + 10 μM serotonin, within 5 minutes), the inhibition at 6 µM is 30%. For the same molecule, the inhibition at 60 µM with platelet rich plasma (5 min, 60 μM, 3 μM ADP + 10 μM serotonin, within 5 minutes) came out at 50%. The inhibition at 600 µM in the data set on platelet rich plasma (5 min, 0.6 mM, 3 μM ADP + 10 μM serotonin, within 5 minutes) turned out to be 60%. The inhibition at 1000 µM in the data set with platelet rich plasma (5 min, 1 mM, 3 μM ADP + 10 μM serotonin, within 5 minutes) was found to be 79%. Further, the “radioactivity concentrations in the brain” value in data set [1] was “none of the animals had measurable radioactivity concentrations in the brain”.
For the molecule `O=C(c1ccc(F)cc1)C1CCN(CCn2c(=O)[nH]c3ccccc3c2=O)CC1` [Ketanserin, reference compound], the inhibition at 100 µM with platelet rich plasma (100 μM, positive control, same conditions, read-out: inhibitory effect on platelet aggregation) worked out at 55%.
